Data taken from ChEMBL document CHEMBL1130582, “Substrate specificity of thermostable farnesyl diphosphate synthase with alkyl group homologs of isopentenyl diphosphate” (1998).
Values belong to the compound of their own block, whether it stands above or below them.

How the values were obtained:
[1] = tested on: Farnesyl diphosphate synthase (Aves); assay: Relative yield of the product (4b') derived from the compound with GPP in the enzymatic reaction catalyzed by FPP synthase from avian liver
[2] = molecular target: T1, Farnesyl diphosphate synthase (Geobacillus stearothermophilus) (UniProt Q08291); assay: Relative yield of the product (4b') derived from the compound with GPP in the enzymatic reaction catalyzed by FPP synthase from Bacillus stearothermophilus; assay type: functional
T1 sequence (whole entry): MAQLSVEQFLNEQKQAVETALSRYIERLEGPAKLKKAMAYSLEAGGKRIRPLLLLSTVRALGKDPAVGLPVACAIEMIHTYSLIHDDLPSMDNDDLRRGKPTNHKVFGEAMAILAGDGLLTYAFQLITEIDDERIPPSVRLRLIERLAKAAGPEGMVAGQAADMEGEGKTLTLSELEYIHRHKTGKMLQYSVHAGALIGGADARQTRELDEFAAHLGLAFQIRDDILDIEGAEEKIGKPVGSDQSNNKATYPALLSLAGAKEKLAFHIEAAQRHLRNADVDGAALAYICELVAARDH

[3] = tested on: Farnesyl diphosphate synthase (Aves); assay: Relative yield of the product (4b) derived from the compound with DMAPP in the enzymatic reaction catalyzed by FPP synthase from avian liver
[4] = tested on: Farnesyl diphosphate synthase (Aves); assay: Relative yield of the product (3b) derived from the compound with DMAPP in the enzymatic reaction catalyzed by FPP synthase from avian liver
[5] = tested on: Farnesyl diphosphate synthase (Sus scrofa); assay: Relative yield of the product (4b) derived from the compound with DMAPP in the enzymatic reaction catalyzed by FPP synthase from porcine liver
[6] = tested on: Farnesyl diphosphate synthase (Sus scrofa); assay: Relative yield of the product (4b') derived from the compound with GPP in the enzymatic reaction catalyzed by FPP synthase from porcine liver
[7] = tested on: Farnesyl diphosphate synthase (Sus scrofa); assay: Relative yield of the product (3b) derived from the compound with DMAPP in the enzymatic reaction catalyzed by FPP synthase from porcine liver; ND = Not detected
[8] = molecular target: T1, Farnesyl diphosphate synthase (Geobacillus stearothermophilus); assay: (§1) Relative yield of the product (3b) derived from the compound with DMAPP in the enzymatic reaction catalyzed by FPP synthase from Bacillus stearothermophilus; assay type: functional
[9] = molecular target: T1, Farnesyl diphosphate synthase (Geobacillus stearothermophilus); assay: Relative yield of the product (4b) derived from the compound with DMAPP in the enzymatic reaction catalyzed by FPP synthase from Bacillus stearothermophilus; assay type: functional
[10] = tested on: Geobacillus stearothermophilus; assay: Relative yield of the product (3c) derived from the compound with DMAPP in the enzymatic reaction catalyzed by FPP synthase from Bacillus stearothermophilus; assay type: functional
[11] = tested on: Geobacillus stearothermophilus; assay: Relative yield of the product (4c) derived from the compound with GPP in the enzymatic reaction catalyzed by FPP synthase from Bacillus stearothermophilus; assay type: functional
Aves [12] = assay: Relative yield of the product (4c) derived from the compound with GPP in the enzymatic reaction catalyzed by FPP synthase from avian liver; ND = Not detected; assay type: functional
Sus scrofa [13] = organism: Sus scrofa; assay: Relative yield of the product (4c) derived from the compound with GPP in the enzymatic reaction catalyzed by FPP synthase from porcine liver; assay type: functional
Sus scrofa [14] = organism: Sus scrofa; assay: Relative yield of the product (3c) derived from the compound with DMAPP in the enzymatic reaction catalyzed by FPP synthase from porcine liver; assay type: functional
Aves [15] = assay: Relative yield of the product (3c) derived from the compound with DMAPP in the enzymatic reaction catalyzed by FPP synthase from avian liver; assay type: functional
[16] = tested on: Geobacillus stearothermophilus; assay: as §1; assay type: functional
Sus scrofa [17] = organism: Sus scrofa; assay: Relative yield of the product (3b) derived from the compound with DMAPP in the enzymatic reaction catalyzed by FPP synthase from porcine liver; ND = Not detected; assay type: functional, organism-based
Aves [18] = assay: Relative yield of the product (3b) derived from the compound with DMAPP in the enzymatic reaction catalyzed by FPP synthase from avian liver; ND = Not detected; assay type: functional
[19] = tested on: Geobacillus stearothermophilus; assay: Relative yield of the product (4d) derived from the compound with GPP in the enzymatic reaction catalyzed by FPP synthase from B. stearothermophilus; ND = Not detected; assay type: functional
Aves [20] = assay: Relative yield of the product (4d) derived from the compound with DMAPP in the enzymatic reaction catalyzed by FPP synthase from avian liver; ND = Not detected; assay type: functional
Sus scrofa [21] = organism: Sus scrofa; assay: Relative yield of the product (4d) derived from the compound with DMAPP in the enzymatic reaction catalyzed by FPP synthase from porcine liver; ND = Not detected; assay type: functional

Production [1]: 25%
Production [2]: 48%
Production [3]: 6.7%
Production [4]: 1%
Production [5]: 10%
Production [6]: 27%
Production [7]: Not detected
Production [8]: 68%
Production [9]: 40%
SMILES: C=C(CC)CCOP(=O)(O)OP(=O)(O)O

SMILES: C=C(CCC)CCOP(=O)(O)OP(=O)(O)O
Production [10]: 29%
Production [11]: 10%
Production (Aves [12]): Not detected
Production (Sus scrofa [13]): 1.8%
Production (Sus scrofa [14]): 1.4%
Production (Aves [15]): 1%

SMILES: C=C(CCCC)CCOP(=O)(O)OP(=O)(O)O
Production [16]: 4%
Production (Sus scrofa [17]): Not detected
Production (Aves [18]): Not detected
Production [19]: Not detected
Production (Aves [20]): Not detected
Production (Sus scrofa [21]): Not detected
